One assay has as its target T1, CgLDC (Colletotrichum gloeosporioides, UniProt A0A1X9J191).
T1 construct: 256 residues, 28 kDa, cDNA 769 bp
T1 sequence (A0A1X9J191 62-294): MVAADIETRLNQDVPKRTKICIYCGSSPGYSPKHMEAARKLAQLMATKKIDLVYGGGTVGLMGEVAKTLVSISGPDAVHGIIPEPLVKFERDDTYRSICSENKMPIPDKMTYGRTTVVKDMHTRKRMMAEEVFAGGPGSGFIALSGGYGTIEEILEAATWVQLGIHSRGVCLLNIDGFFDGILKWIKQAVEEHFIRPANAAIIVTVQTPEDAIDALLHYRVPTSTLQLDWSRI
Description: LC-MS detection of cadaverine (m/z […]). In kind it is biochemical. The settings on record: pyridoxal phosphate 40 µg, potassium phosphate pH 8.0, 37 °C, 45 min; boiled enzyme as negative control.

A further assay concerns the target T2, CgCAO (Colletotrichum gloeosporioides, UniProt A0A191JKR0).
T2 construct: 672 residues, 76 kDa, cDNA 2072 bp
T2 sequence (A0A191JKR0 1-684): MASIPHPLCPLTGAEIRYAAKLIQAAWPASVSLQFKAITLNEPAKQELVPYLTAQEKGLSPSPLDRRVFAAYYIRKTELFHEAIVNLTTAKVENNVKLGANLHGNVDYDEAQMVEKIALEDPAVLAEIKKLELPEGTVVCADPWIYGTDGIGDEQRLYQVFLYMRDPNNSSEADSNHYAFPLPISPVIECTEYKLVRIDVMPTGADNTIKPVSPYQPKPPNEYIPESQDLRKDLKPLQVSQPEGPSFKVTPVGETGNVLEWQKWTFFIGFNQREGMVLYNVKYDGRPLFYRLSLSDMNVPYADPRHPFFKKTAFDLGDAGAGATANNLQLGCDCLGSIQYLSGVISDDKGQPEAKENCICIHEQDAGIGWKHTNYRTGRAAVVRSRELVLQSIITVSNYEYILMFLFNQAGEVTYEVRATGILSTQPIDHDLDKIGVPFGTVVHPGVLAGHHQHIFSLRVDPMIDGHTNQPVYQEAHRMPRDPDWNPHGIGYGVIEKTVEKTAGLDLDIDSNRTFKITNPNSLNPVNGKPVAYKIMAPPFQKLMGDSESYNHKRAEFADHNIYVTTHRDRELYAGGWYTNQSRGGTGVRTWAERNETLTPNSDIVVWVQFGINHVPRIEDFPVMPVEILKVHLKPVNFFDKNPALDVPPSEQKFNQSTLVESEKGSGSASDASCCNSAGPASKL
Description: LC-MS detection of delta1-piperideine (m/z […]). The settings on record: 1 mM cadaverine, 50 mM Tris-HCl pH 8.0, 25 °C, 16 h; boiled enzyme as negative control. In kind it is biochemical.

Take `NCCCC[C@H](N)C(=O)O` [L-lysine]: at CgLDC, the “LC-MS detection of cadaverine (m/z 103)” value was “CgLDC catalyzed the conversion of L-lysine to cadaverine”.

As to `NCCCCCN` [cadaverine], the “LC-MS detection of delta1-piperideine (m/z 84)” value on CgCAO is recorded as “CgCAO converted cadaverine to 5-aminopentanal”.
